Measured values reported in patent publication US11834424B2, “Compounds useful as chaperone-mediated autophagy modulators” (ALBERT EINSTEIN COLLEGE OF MEDICINE, priority 2018, dated 2023).
“And” between values parts separate entries of the source, which are not always exact repeats. Identical values can stand only once. “Also recorded” adds a separate entry of the source. Like-named read-outs stand apart in the source and are kept apart here.

Experiments:
[1] = test system: chaperone-mediated autophagy (CMA) in NIH 3T3 fibroblasts; assay: Photoswitchable KFERQ-Dendra CMA reporter assay in NIH 3T3 fibroblasts; type: cell-based
Protocol: The photoactivatable CMA reporter assay was constructed by inserting a sequence of 21 amino acid of Ribonuclease A bearing the CMA-targeting motif in the N-terminus multicloning site of the photoactivatable protein mCherryl or the photoswitchable protein Dendra 2.
NIH 3T3 fibroblasts were stably transduced with a photoconvertible CMA reporter, KFERQ-Dendra. were photoswitched by exposure to a […] (constant current) LED (Norlux, 405 nm) for 10 minutes and at the desired times fixed in 3% formaldehyde. Test cells were exposed to the indicated concentrations of the compounds for 12 hours (FIG. 3A) or 24 hours (FIG. 3B). Cells were imaged using high content microscopy (Operetta, Perkin Elmer) or by capturing images with an Axiovert 200 fluorescence microscope (Zeiss) with apotome and equipped with a 63/1.4 NA oil objective lens and red (ex. 570/30 nm, em. 615/30 nm), cyan (ex. 365/50 nm and em. 530/45 nm) and green (ex. 475/40 nm and em. 535/45 nm) filter sets (Chroma). Images were acquired with a high-resolution CCD camera after optical sectioning through the apotome. CMA activity measured as the average number of fluorescent puncta (CMA active lysosomes) per cell. Values are expressed relative to values in untreated cells that were assigned an arbitrary value of 1 and are mean of >2,500 cells counted per condition. The S.D. in all instances was <0.01% mean value. Table 2 provides a comparison of compounds CA39.1 and its comparative example CA39 and CA77.01 and its comparative example CA77.

[2] = Pharmacokinetics (plasma and brain levels) in ICR (CD-1) mice; type: in vivo; conditions: i.v. 1 mg/kg; for Conc. in brain, individual animal / concentration at 0.083 h / concentration at 0.25 h / concentration at 0.5 h / concentration at 1 h / concentration at 2 h / concentration at 4 h: mouse brain; for Conc. in plasma, individual animal: mouse plasma; for Brain/Plasma ratio, individual animal / concentration at 0.083 h / concentration at 0.25 h / concentration at 0.5 h / concentration at 1 h / concentration at 2 h / concentration at 4 h: mouse; for concentration at 0.083 h / concentration at 0.25 h / concentration at 0.5 h / concentration at 1 h / concentration at 2 h / concentration at 4 h: male, ICR (CD-1), brain, iv
Protocol: ICR (CD-1) male mice were fasted at least three horns and water was available ad libitum before the study. Animals were housed in a controlled environment, target conditions: temperature 18 to 29° C., relative humidity 30 to 70%. Temperature and relative humidity was monitored daily. An electronic time controlled lighting system was used to provide a 12 h light/12 h dark cycle. 3 mice for each indicated time point. ICR (CD-1) mice were administered CA77 at 1 mg/kg i.v. and 30 mg/kg p.o. or CA77.1 at 1 mg/kg i.v. (FIG. 2A) and 10 mg/kg p.o. (FIG. 2B). Three (3) mice were included in each dosage and time group. Mice were sacrificed and plasma and brains were obtained at 0.083, 0.25, 0.50, 1.0, 2.0, 4.0, 8.0, and 24.0 hours after administration and drug concentration determined using LC-MS/MS. Brains were removed, homogenized with a tissue homogenizer in cold 5% w/v BSA in phosphate buffer saline (PBS). A 100 microliter aliquots of brain samples were dispensed in to glass culture tubes and mixed with ethyl acetate (800 μl), vortexed, and centrifuged. The organic layer was transferred to a fresh culture tube, dried under nitrogen, and reconstituted in mobile phase for quantitation. Pharmacokinetic parameters were determined by standard methods using Phoenix WinNonlin 6.3 software.
Tables 3A and 3B provide the concentrations of CA77 in ICR (CD-1) mouse plasma (3A) and mouse brain (3B) following i.v. administration of 1 mg/kg CA77. Table 3C provides the brain/plasma ratio of CA77 following i.v. administration of 1 mg/kg CA77. Shaded cells indicate data not included in statistics due to aberrant value. BLQ=Below Limit of Quantitation.
Tables 5A and 5B provide the concentrations of CA77.1 in ICR (CD-1) mouse plasma (5A) and mouse brain (5B) following i.v. administration of 1 mg/kg CA77.1. Table 5C provides the brain/plasma ratio of CA77.1 following i.v. administration of 1 mg/kg CA77.1. The plasma and brain pharmacokinetic parameters for CA77.1 are provided in Table 6. *—cells contain data not present in the statistics.

CC(=O)Nc1ccc(-c2cnc3cc(Cl)ccc3n2)cc1 [CA77.1, N-(4-(6-chloroquinoxalin-2-yl)phenyl)acetamide]
CMA activity (fluorescent puncta per cell, relative to untreated cells = 1) ([1]; Time 5): 2.53 | CMA activity (fluorescent puncta per cell, relative to untreated cells = 1) ([1]; Time 10): 3.365 | CMA activity (fluorescent puncta per cell, relative to untreated cells = 1) ([1]; Time 20): 5.858 | CMA activity (fluorescent puncta per cell, relative to untreated cells = 1) ([1]; Time 30): 5.889 | CL obs ([2]; ICR (CD-1) mice): 53 mL/min/kg | VSS_obs ([2]; ICR (CD-1) mice): 6.463 L/kg | Conc. in brain, individual animal ([2]; 0.083 h, 1 mg/kg): 1171 ng/g and 970 ng/g | Conc. in brain, individual animal ([2]; 0.25 h, 1 mg/kg): 813 ng/g and 691 ng/g | Conc. in brain, individual animal ([2]; 0.50 h, 1 mg/kg): 677 ng/g and 1083 ng/g | Conc. in brain, individual animal ([2]; 1.00 h, 1 mg/kg): 628 ng/g and 781 ng/g | Conc. in brain, individual animal ([2]; 2.00 h, 1 mg/kg): 269 ng/g and 186 ng/g | Conc. in brain, individual animal ([2]; 4.00 h, 1 mg/kg): 13.6 ng/g and 24.9 ng/g | Conc. in brain, individual animal ([2]; 8.00 h, 1 mg/kg): 3.31 ng/g and 3.66 ng/g | Conc. in brain, individual animal ([2]; 24.0 h): 0 ng/g | Conc. in plasma, individual animal ([2]; 0.083 h, 1 mg/kg): 178 ng/mL and 214 ng/mL | Conc. in plasma, individual animal ([2]; 0.25 h, 1 mg/kg): 152 ng/mL and 104 ng/mL | Conc. in plasma, individual animal ([2]; 0.50 h, 1 mg/kg): 247 ng/mL and 100 ng/mL and 481 ng/mL | Conc. in plasma, individual animal ([2]; 1.00 h, 1 mg/kg): 79.3 ng/mL and 85.0 ng/mL | Conc. in plasma, individual animal ([2]; 2.00 h, 1 mg/kg): 30.8 ng/mL and 38.5 ng/mL and 69.4 ng/mL | Conc. in plasma, individual animal ([2]; 4.00 h, 1 mg/kg): 3.31 ng/mL and 3.33 ng/mL and 10.2 ng/mL | Conc. in plasma, individual animal ([2]; 8.00 h, 1 mg/kg): 1.43 ng/mL and 1.42 ng/mL | Conc. in plasma, individual animal ([2]; 24.0 h, 1 mg/kg): *7.61 ng/mL; also recorded: *16.6 ng/mL | Brain/Plasma ratio, individual animal ([2]; 0.083 h, 1 mg/kg): 6.57 and 4.53 | Brain/Plasma ratio, individual animal ([2]; 0.25 h, 1 mg/kg): 5.35 and 6.67 | Brain/Plasma ratio, individual animal ([2]; 0.50 h, 1 mg/kg): 2.74 and 6.77 and 2.25 | Brain/Plasma ratio, individual animal ([2]; 1.00 h, 1 mg/kg): 7.92 and 9.19 | Brain/Plasma ratio, individual animal ([2]; 2.00 h, 1 mg/kg): 8.97 and 7.00 and 2.68 | Brain/Plasma ratio, individual animal ([2]; 4.00 h, 1 mg/kg): 5.48 and 4.09 and 2.44 | Brain/Plasma ratio, individual animal ([2]; 8.00 h, 1 mg/kg): 2.31 and 2.59 | concentration at 0.083 h ([2]; 1 mg/kg, 0.083 h, read-out: Conc. in brain, Mean): 1060 ng/g | concentration at 0.083 h ([2]; 1 mg/kg, 0.083 h, read-out: Conc. in brain, individual animal): 1030 ng/g | concentration at 0.25 h ([2]; 1 mg/kg, 0.25 h, read-out: Conc. in brain, Mean): 789 ng/g | concentration at 0.25 h ([2]; 1 mg/kg, 0.25 h, read-out: Conc. in brain, individual animal): 864 ng/g | concentration at 0.5 h ([2]; 1 mg/kg, 0.50 h, read-out: Conc. in brain, Mean): 812 ng/g | concentration at 0.5 h ([2]; 1 mg/kg, 0.50 h, read-out: Conc. in brain, individual animal): 677 ng/g | concentration at 1 h ([2]; 1 mg/kg, 1.00 h, read-out: Conc. in brain, Mean): 669 ng/g | concentration at 1 h ([2]; 1 mg/kg, 1.00 h, read-out: Conc. in brain, individual animal): 597 ng/g | concentration at 2 h ([2]; 1 mg/kg, 2.00 h, read-out: Conc. in brain, Mean): 244 ng/g | concentration at 2 h ([2]; 1 mg/kg, 2.00 h, read-out: Conc. in brain, individual animal): 276 ng/g | concentration at 4 h ([2]; 1 mg/kg, 4.00 h, read-out: Conc. in brain, Mean): 19 ng/g | concentration at 4 h ([2]; 1 mg/kg, 4.00 h, read-out: Conc. in brain, individual animal): 18.2 ng/g
